Measured values taken from patent publication US20240208972A1, “LRRK2 INHIBITORS AND USES THEREOF” (NEURON23, INC., priority 2022, published 2024).

What was measured:
Caco-2 cells = assay: Caco-2 bidirectional permeability; type: in vitro ADME; conditions: for Caco-2 A2B (10^−6 cm/s): A to B; for Caco-2 A2B (10^−6 cm/s) / Caco-2 B2A (10^−6 cm/s): HBSS pH 7.4, 2 hours; for Caco-2 B2A (10^−6 cm/s): B to A; for Caco-2 ER: Efflux Ratio=Papp (BA)/Papp (AB)
Summary of the method: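 Caco-2 monolayers grown 21–28 days on PET inserts were run in duplicate in HBSS with 10 mM HEPES, pH 7.4. Compound was tested in both directions at […] for 2 h at 37 °C and quantified by LC-MS/MS. Papp, % recovery and efflux ratio (B-A/A-B) were calculated, with lucifer yellow checking monolayer integrity.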

[1] = biological target: T1, wt human LRRK2, catalytic site (Homo sapiens, UniProt Q5S007); assay: TR-FRET LanthaScreen Tb Kinase Activity Assay, LRRK2 kinase inhibition; type: biochemical; conditions: 2 nM wt human LRRK2, 400 nM peptide, 38 μM ATP
T1 construct: wt human LRRK2, catalytic site, catalytic site (ThermoFisher/USA); purchased ThermoFisher
T1 sequence (Q5S007 1879-2138 limits assumed): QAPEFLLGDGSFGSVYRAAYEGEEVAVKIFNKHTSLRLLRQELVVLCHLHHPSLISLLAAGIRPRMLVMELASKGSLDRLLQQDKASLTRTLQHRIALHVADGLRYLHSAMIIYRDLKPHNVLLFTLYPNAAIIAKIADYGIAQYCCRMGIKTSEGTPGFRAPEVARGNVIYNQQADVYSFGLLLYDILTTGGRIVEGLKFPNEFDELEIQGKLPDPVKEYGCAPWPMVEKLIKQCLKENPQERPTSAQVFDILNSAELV
Summary of the method: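 TR-FRET LanthaScreen format: 2 nM wt human LRRK2 catalytic domain with 400 nM fluorescein-ERM (LRRKtide) and 38 μM ATP in Kinase Buffer A, after 15 min compound preincubation. Reaction 120 min at RT, then EDTA plus Tb-anti-pLRRKtide antibody for 60 min; emission ratios analysed per kit protocol.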

Row | SMILES | Caco-2 A2B (10^−6 cm/s) (Caco-2 cells) | Caco-2 B2A (10^−6 cm/s) (Caco-2 cells) | Caco-2 ER (Caco-2 cells) | IC50 [1]
1 | CCc1n[nH]c2c1N=C(c1c(F)cccc1F)Nc1cnc(N3CCOCC3)cc1-2 [Example 31, 4-[8-(2,6-difluorophenyl)-5-ethyl-3,4,7,9,12-pentazatricyclo[8.4.0.02,6]tetradeca-1(10),2(6),4,7,11,13-hexaen-13-yl]morpholine] | H (H (High permeability)”: A2B (B2A)>5) | H (H (High permeability)”: A2B (B2A)>5) | N (N (Non-substrate)”: ER<2.5) | 2 to 100 nM
2 | Cc1n[nH]c2c1N=C(c1c(F)cccc1F)Nc1ccc(N3CCOCC3)cc1-2 [Example 29, 4-(5-(2,6-difluorophenyl)-3-methyl-1,6-dihydrobenzo[d]pyrazolo[3,4-f][1,3]diazepin-9-yl)morpholine] | H (H (High permeability)”: A2B (B2A)>5) | H (H (High permeability)”: A2B (B2A)>5) | N (N (Non-substrate)”: ER<2.5) | < 2 nM
3 | Cc1n[nH]c2c1N=C(c1c(F)cccc1F)Nc1ccc(N3CCO[C@@H](C)C3)cc1-2 [Example 26, (S)-4-(5-(2,6-difluorophenyl)-3-methyl-1,6-dihydrobenzo[d]pyrazolo[3,4-f][1,3]diazepin-9-yl)-2-methylmorpholine] | H (H (High permeability)”: A2B (B2A)>5) | H (H (High permeability)”: A2B (B2A)>5) | N (N (Non-substrate)”: ER<2.5) | 2 to 100 nM
4 | Cc1n[nH]c2c1N=C(c1c(F)cccc1F)Nc1c-2cc(N2CCN(CC(F)F)CC2)nc1C [Example 19, 13-[4-(2,2-difluoroethyl)piperazin-1-yl]-8-(2,6-difluorophenyl)-5,11-dimethyl-3,4,7,9,12-pentazatricyclo[8.4.0.02,6]tetradeca-1(10),2(6),4,7,11,13-hexaene] | H (H (High permeability)”: A2B (B2A)>5) | H (H (High permeability)”: A2B (B2A)>5) | N (N (Non-substrate)”: ER<2.5) | < 2 nM
5 | Cc1n[nH]c2c1N=C(c1c(F)cccc1F)Nc1ccc(N3CCN(CCF)CC3)cc1-2 [Example 25, 5-(2,6-difluorophenyl)-9-[4-(2-fluoroethyl)piperazin-1-yl]-3-methyl-1,6-dihydropyrazolo[4,3-d][1,3]benzodiazepine] | H (H (High permeability)”: A2B (B2A)>5) | H (H (High permeability)”: A2B (B2A)>5) | L (L (Likely)”: ER>2.5) | < 2 nM
6 | Cc1n[nH]c2c1N=C(c1c(F)cccc1F)Nc1ccc(-c3cnn(C(F)F)c3)cc1-2 [Example 13, 9-[1-(difluoromethyl)pyrazol-4-yl]-5-(2,6-difluorophenyl)-3-methyl-1,6-dihydropyrazolo[4,3-d][1,3]benzodiazepine] | H (H (High permeability)”: A2B (B2A)>5) | H (H (High permeability)”: A2B (B2A)>5) | N (N (Non-substrate)”: ER<2.5) | < 2 nM
7 | Cc1n[nH]c2c1N=C(c1c(F)cccc1F)Nc1cc(F)c(N3CCOCC3)cc1-2 [Example 28, 4-[5-(2,6-difluorophenyl)-8-fluoro-3-methyl-1,6-dihydropyrazolo[4,3-d][1,3]benzodiazepine-9-yl]morpholine] | H (H (High permeability)”: A2B (B2A)>5) | H (H (High permeability)”: A2B (B2A)>5) | N (N (Non-substrate)”: ER<2.5) | 2 to 100 nM
8 | Cc1n[nH]c2c1N=C(c1c(F)cccc1F)Nc1c-2cc(N2CCOCC2)nc1C [Example 8, 4-[8-(2,6-difluorophenyl)-5,11-dimethyl-3,4,7,9,12-pentazatricyclo[8.4.0.02,6]tetradeca-1(10),2(6),4,7,11,13-hexaen-13-yl]morpholine] | H (H (High permeability)”: A2B (B2A)>5) | H (H (High permeability)”: A2B (B2A)>5) | N (N (Non-substrate)”: ER<2.5) | < 2 nM

The next lines start with the values.

Row | Caco-2 A2B (10^−6 cm/s) (Caco-2 cells) | Caco-2 B2A (10^−6 cm/s) (Caco-2 cells) | Caco-2 ER (Caco-2 cells) | IC50 [1] | SMILES
9 | H (H (High permeability)”: A2B (B2A)>5) | H (H (High permeability)”: A2B (B2A)>5) | N (N (Non-substrate)”: ER<2.5) | < 2 nM | Cc1n[nH]c2c1N=C(c1c(F)cccc1F)Nc1c-2cc(N2CCO[C@@H](C)C2)nc1C [Example 40, (S)-4-(5-(2,6-difluorophenyl)-3,7-dimethyl-1,6-dihydropyrazolo[4,3-d]pyrido[4,3-f][1,3]diazepin-9-yl)-2-methylmorpholine]
10 | H (H (High permeability)”: A2B (B2A)>5) | H (H (High permeability)”: A2B (B2A)>5) | L (L (Likely)”: ER>2.5) | < 2 nM | [2H]C([2H])([2H])c1n[nH]c2c1N=C(c1c(F)cccc1F)Nc1cnc(N3CCOCC3)cc1-2 [Example 32, 4-[8-(2,6-difluorophenyl)-5-(trideuteriomethyl)-3,4,7,9,12-pentazatricyclo[8.4.0.02,6]tetradeca-1(10),2(6),4,7,11,13-hexaen-13-yl]morpholine]
11 | H (H (High permeability)”: A2B (B2A)>5) | H (H (High permeability)”: A2B (B2A)>5) | N (N (Non-substrate)”: ER<2.5) | < 2 nM | Cc1n[nH]c2c1N=C(c1c(F)cccc1F)Nc1c-2cc(N2CCN(CC(C)(C)F)CC2)nc1C [Example 5, 5-(2,6-difluorophenyl)-9-(4-(2-fluoro-2-methylpropyl)piperazin-1-yl)-3,7-dimethyl-1,6-dihydropyrazolo[4,3-d]pyrido[4,3-f][1,3]diazepine]
12 | H (H (High permeability)”: A2B (B2A)>5) | H (H (High permeability)”: A2B (B2A)>5) | N (N (Non-substrate)”: ER<2.5) | < 2 nM | Cc1n[nH]c2c1N=C(c1c(F)cccc1F)Nc1c-2cc(N2CCN(CC(C)F)CC2)nc1C (racemic) [Example 20, 8-(2,6-difluorophenyl)-13-[4-(2-fluoropropyl)piperazin-1-yl]-5,11-dimethyl-3,4,7,9,12-pentazatricyclo[8.4.0.02,6]tetradeca-1(10),2(6),4,7,11,13-hexaene]
13 | H (H (High permeability)”: A2B (B2A)>5) | H (H (High permeability)”: A2B (B2A)>5) | N (N (Non-substrate)”: ER<2.5) | < 2 nM | Cc1n[nH]c2c1N=C(c1c(F)cccc1F)Nc1cnc(N3CCO[C@@H](C(F)(F)F)C3)cc1-2 [Example 55, (2R)-4-[8-(2,6-difluorophenyl)-5-methyl-3,4,7,9,12-pentazatricyclo[8.4.0.02,6]tetradeca-1(10),2(6),4,7,11,13-hexaen-13-yl]-2-(trifluoromethyl)morpholine]
14 | H (H (High permeability)”: A2B (B2A)>5) | H (H (High permeability)”: A2B (B2A)>5) | N (N (Non-substrate)”: ER<2.5) | < 2 nM | Cc1n[nH]c2c1N=C(c1c(F)cccc1F)Nc1c-2cc(N2CCN(CC(F)(F)F)CC2)nc1C [Example 23, 5-(2,6-difluorophenyl)-3,7-dimethyl-9-(4-(2,2,2-trifluoroethyl)piperazin-1-yl)-1,6-dihydropyrazolo[4,3-d]pyrido[4,3-f][1,3]diazepine]
15 | H (H (High permeability)”: A2B (B2A)>5) | H (H (High permeability)”: A2B (B2A)>5) | N (N (Non-substrate)”: ER<2.5) | < 2 nM | Fc1cccc(F)c1C1=Nc2c(C(F)F)n[nH]c2-c2cc(N3CCOCC3)ncc2N1 [Example 10, 4-[5-(difluoromethyl)-8-(2,6-difluorophenyl)-3,4,7,9,12-pentazatricyclo[8.4.0.02,6]tetradeca-1(10),2(6),4,7,11,13-hexaen-13-yl]morpholine]
16 | H (H (High permeability)”: A2B (B2A)>5) | H (H (High permeability)”: A2B (B2A)>5) | N (N (Non-substrate)”: ER<2.5) | < 2 nM | Cc1n[nH]c2c1N=C(c1c(F)cccc1F)Nc1c-2cc(N2CCN(CCF)C[C@H]2C)nc1C (single isomer, unassigned) [Example 18]
17 | H (H (High permeability)”: A2B (B2A)>5) | H (H (High permeability)”: A2B (B2A)>5) | N (N (Non-substrate)”: ER<2.5) | < 2 nM | Cc1n[nH]c2c1N=C(c1c(F)cccc1F)Nc1c(F)cc(N3CCOCC3)cc1-2 [Example 30, 4-(5-(2,6-difluorophenyl)-7-fluoro-3-methyl-1,6-dihydrobenzo[d]pyrazolo[3,4-f][1,3]diazepin-9-yl)morpholine]
18 | H (H (High permeability)”: A2B (B2A)>5) | H (H (High permeability)”: A2B (B2A)>5) | N (N (Non-substrate)”: ER<2.5) | < 2 nM | Cc1n[nH]c2c1N=C(c1c(F)cccc1F)Nc1c-2cc(N2CCN(CCF)CC2)nc1C [Example 9, 8-(2,6-difluorophenyl)-13-[4-(2-fluoroethyl)piperazin-1-yl]-5,11-dimethyl-3,4,7,9,12-pentazatricyclo[8.4.0.02,6]tetradeca-1(10),2(6),4,7,11,13-hexaene]
19 | H (H (High permeability)”: A2B (B2A)>5) | H (H (High permeability)”: A2B (B2A)>5) | N (N (Non-substrate)”: ER<2.5) | < 2 nM | Cc1n[nH]c2c1N=C(c1c(F)cccc1F)Nc1cnc(-c3cnn(C(F)F)c3)cc1-2 [Example 1, 9-(1-(difluoromethyl)-1H-pyrazol-4-yl)-5-(2,6-difluorophenyl)-3-methyl-1,6-dihydropyrazolo[4,3-d]pyrido[4,3-f][1,3]diazepine]
